Measured values as given in patent publication US9918990B2, “Substituted pyrrolo[2,3-c]pyridines and pyrazolo[3,4-c]pyridines as BET protein inhibitors” (Incyte Corporation, priority 2013, dated 2018).

Experiments:
BRD4-BD1 = BRD4-BD1 (Homo sapiens (Human), UniProt O60885); test: BRD4 AlphaScreen assay, BRD4-BD1; format: binding; settings: H4Ac4 peptide, 75 min, room temperature, read-out: BRD4 BD-1 enzyme IC50
Method in brief: (§1)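 AlphaScreen read after 75 min dark incubation at room temperature, inhibitors serially diluted in DMSO and added before other components. IC50 from fit of percent control activity versus log inhibitor concentration.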

BRD4-BD2 = BRD4-BD2 (Homo sapiens (Human), UniProt O60885); test: BRD4 AlphaScreen assay, BRD4-BD2; format: binding; settings: H4Ac4 peptide, 75 min, room temperature, read-out: BRD4 BD-2 enzyme IC50
Method in brief: as §1

KMS.12.BM cells = test: KMS.12.BM cell viability assay (Cell Titer-GLO, ATP quantitation); format: cell-based; settings: Homo sapiens, 72 h, 3 days, concentration required for 50% cell death, read-out: KMS cellular IC50
Method in brief: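 Human myeloma KMS.12.BM cells, 5000 cells/well in RPMI with 10% FBS, were exposed to a compound concentration range for 3 days. Viability was read by Cell Titer-GLO ATP luminescence relative to untreated cells; IC50 is the concentration giving 50% cell death.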

C-myc = test: KMS.12.BM C-myc ELISA assay; format: cell-based; settings: Homo sapiens; KMS.12.BM cells, 2 hours, concentration required for 50% C-myc inhibition
Method in brief: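 Human myeloma KMS.12.BM cells in RPMI/10% FBS were exposed to a compound concentration range for 2 h, then lysed with protease inhibitors. C-myc in clarified lysates was measured by ELISA. IC50 is the concentration giving 50% C-myc inhibition relative to untreated cells.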

Structure (SMILES)	IC50 (BRD4-BD1) [nM]	IC50 (BRD4-BD2) [nM]	IC50 (C-myc) [nM]	IC50 (KMS.12.BM cells) [nM]
CNC(=O)Cn1cnc2c(Oc3ccc(F)cc3F)c(-c3cn(C)c(=O)c4[nH]ccc34)ccc21 [Example 36, 2-[4-(2,4-difluorophenoxy)-5-(6-methyl-7-oxo-6,7-dihydro-1H-pyrrolo[2,3-c]pyridin-4-yl)-1H-benzimidazol-1-yl]-N-methylacetamide]	< 100	< 100	≤ 1000	≤ 1000
Cn1cc(-c2ccc3ncn(CC(=O)N4CCOCC4)c3c2Oc2ccc(F)cc2F)c2cc[nH]c2c1=O [Example 30, 4-[7-(2,4-Difluorophenoxy)-1-(2-morpholin-4-yl-2-oxoethyl)-1H-benzimidazol-6-yl]-6-methyl-1,6-dihydro-7H-pyrrolo[2,3-c]pyridin-7-one]	< 100	< 100	≤ 1000	≤ 1000
Cn1cc(-c2ccc3[nH]cnc3c2Oc2ccc(F)cc2F)c2cn[nH]c2c1=O [Example 14, 4-[4-(2,4-Difluorophenoxy)-1H-benzimidazol-5-yl]-6-methyl-1,6-dihydro-7H-pyrazolo[3,4-c]pyridin-7-one]	< 100	< 100	≤ 1000	≤ 1000
Cn1cc(-c2ccc3c(c2Oc2ccc(F)cc2F)n(C)c(=O)n3C)c2cc[nH]c2c1=O [Example 7, 4-(2,4-Difluorophenoxy)-1,3-dimethyl-5-(6-methyl-7-oxo-6,7-dihydro-1H-pyrrolo[2,3-c]pyridin-4-yl)-1,3-dihydro-2H-benzimidazol-2-one]	< 100	< 100	1000 to 10000	≤ 1000
Cn1cc(-c2ccc3ncn(CCN4CCOCC4)c3c2Oc2ccccc2)c2cc[nH]c2c1=O [Example 42, 6-Methyl-4-[1-(2-morpholin-4-ylethyl)-7-phenoxy-1H-benzimidazol-6-yl]-1,6-dihydro-7H-pyrrolo[2,3-c]pyridin-7-one]	< 100	< 100	≤ 1000	≤ 1000
Cn1cc(-c2ccc3c([nH]c(=O)n3C)c2OCC2CCC2)c2cc[nH]c2c1=O [Example 37, 4-(Cyclobutylmethoxy)-1-methyl-5-(6-methyl-7-oxo-6,7-dihydro-1H-pyrrolo[2,3-c]pyridin-4-yl)-1,3-dihydro-2H-benzimidazol-2-one]	< 100	< 100	≤ 1000	≤ 1000
COc1c(-c2cn(C)c(=O)c3[nH]ccc23)ccc2c1[nH]c(=O)n2C [Example 32, 4-Methoxy-1-methyl-5-(6-methyl-7-oxo-6,7-dihydro-1H-pyrrolo[2,3-c]pyridin-4-yl)-1,3-dihydro-2H-benzimidazol-2-one]	100 to 1000	< 100	≤ 1000	≤ 1000

Continued, in another order:

IC50 (BRD4-BD1) [nM]	IC50 (BRD4-BD2) [nM]	IC50 (C-myc) [nM]	Structure (SMILES)	IC50 (KMS.12.BM cells) [nM]
< 100	< 100	1000 to 10000	Cn1cc(-c2ccc3oc(CNC(=O)CC4CCCC4)nc3c2Oc2ccccc2)c2cc[nH]c2c1=O [Example 109, 2-Cyclopentyl-N-{[5-(6-methyl-7-oxo-6,7-dihydro-1H-pyrrolo[2,3-c]pyridin-4-yl)-4-phenoxy-1,3-benzoxazol-2-yl]methyl}acetamide]	≤ 1000
< 100	< 100	≤ 1000	Cn1cc(-c2ccc3c(ncn3C)c2Oc2ccccc2F)c2cc[nH]c2c1=O [Example 57, 4-[4-(2-Fluorophenoxy)-1-methyl-1H-benzimidazol-5-yl]-6-methyl-1,6-dihydro-7H-pyrrolo[2,3-c]pyridin-7-one]	≤ 1000
< 100	< 100	1000 to 10000	Cn1cc(-c2ccc3oc(CNC(=O)c4ccccc4)nc3c2Oc2ccccc2)c2cc[nH]c2c1=O [Example 106, N-{[5-(6-methyl-7-oxo-6,7-dihydro-1H-pyrrolo[2,3-c]pyridin-4-yl)-4-phenoxy-1,3-benzoxazol-2-yl]methyl}benzamide]	≤ 1000
< 100	< 100	≤ 1000	Cn1cc(-c2ccc3c(ncn3C)c2Oc2cccc(F)c2)c2cc[nH]c2c1=O [Example 58, 4-[4-(3-Fluorophenoxy)-1-methyl-1H-benzimidazol-5-yl]-6-methyl-1,6-dihydro-7H-pyrrolo[2,3-c]pyridin-7-one]	≤ 1000
< 100	< 100	≤ 1000	CC(=O)N1CCN(CCn2c(=O)n(C)c3ccc(-c4cn(C)c(=O)c5[nH]ccc45)c(OCC4CCC4)c32)CC1 [Example 66, 3-(2-(4-Acetylpiperazin-1-yl)ethyl)-4-(cyclobutylmethoxy)-1-methyl-5-(6-methyl-7-oxo-6,7-dihydro-1H-pyrrolo[2,3-c]pyridin-4-yl)-1H-benzo[d]imidazol-2(3H)-one]	≤ 1000
